Laboratory results from patent US10670605B2, “Cysteine reactive probes and uses thereof” (The Scripps Research Institute, priority 2015, dated 2020).

What was measured:
Experiment in all cases: Competitive isoTOP-ABPP in situ (fragment-treated cells)
Assay type in all cases: cell-based
Conditions in all cases: 200 μM, insitu
[1] = target: T1, cysteines in MDA-MB-231 and Ramos cells (Homo sapiens, UniProt P51946)
T1 sequence (P51946 1-323): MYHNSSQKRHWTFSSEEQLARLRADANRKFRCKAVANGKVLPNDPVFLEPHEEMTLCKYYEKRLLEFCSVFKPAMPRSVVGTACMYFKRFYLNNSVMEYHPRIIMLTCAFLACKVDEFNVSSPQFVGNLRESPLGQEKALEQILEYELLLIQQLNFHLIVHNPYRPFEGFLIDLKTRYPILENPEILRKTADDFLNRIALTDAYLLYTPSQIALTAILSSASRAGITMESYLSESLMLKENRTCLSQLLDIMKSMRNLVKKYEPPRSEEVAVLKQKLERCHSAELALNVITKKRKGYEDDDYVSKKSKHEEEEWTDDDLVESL

[2] = target: cysteines in MDA-MB-231 and Ramos cells (Homo sapiens, UniProt Q7Z2W4)
[3] = target: T2, cysteines in MDA-MB-231 and Ramos cells (Homo sapiens, UniProt Q13428)
T2 sequence (Q13428 1-1488): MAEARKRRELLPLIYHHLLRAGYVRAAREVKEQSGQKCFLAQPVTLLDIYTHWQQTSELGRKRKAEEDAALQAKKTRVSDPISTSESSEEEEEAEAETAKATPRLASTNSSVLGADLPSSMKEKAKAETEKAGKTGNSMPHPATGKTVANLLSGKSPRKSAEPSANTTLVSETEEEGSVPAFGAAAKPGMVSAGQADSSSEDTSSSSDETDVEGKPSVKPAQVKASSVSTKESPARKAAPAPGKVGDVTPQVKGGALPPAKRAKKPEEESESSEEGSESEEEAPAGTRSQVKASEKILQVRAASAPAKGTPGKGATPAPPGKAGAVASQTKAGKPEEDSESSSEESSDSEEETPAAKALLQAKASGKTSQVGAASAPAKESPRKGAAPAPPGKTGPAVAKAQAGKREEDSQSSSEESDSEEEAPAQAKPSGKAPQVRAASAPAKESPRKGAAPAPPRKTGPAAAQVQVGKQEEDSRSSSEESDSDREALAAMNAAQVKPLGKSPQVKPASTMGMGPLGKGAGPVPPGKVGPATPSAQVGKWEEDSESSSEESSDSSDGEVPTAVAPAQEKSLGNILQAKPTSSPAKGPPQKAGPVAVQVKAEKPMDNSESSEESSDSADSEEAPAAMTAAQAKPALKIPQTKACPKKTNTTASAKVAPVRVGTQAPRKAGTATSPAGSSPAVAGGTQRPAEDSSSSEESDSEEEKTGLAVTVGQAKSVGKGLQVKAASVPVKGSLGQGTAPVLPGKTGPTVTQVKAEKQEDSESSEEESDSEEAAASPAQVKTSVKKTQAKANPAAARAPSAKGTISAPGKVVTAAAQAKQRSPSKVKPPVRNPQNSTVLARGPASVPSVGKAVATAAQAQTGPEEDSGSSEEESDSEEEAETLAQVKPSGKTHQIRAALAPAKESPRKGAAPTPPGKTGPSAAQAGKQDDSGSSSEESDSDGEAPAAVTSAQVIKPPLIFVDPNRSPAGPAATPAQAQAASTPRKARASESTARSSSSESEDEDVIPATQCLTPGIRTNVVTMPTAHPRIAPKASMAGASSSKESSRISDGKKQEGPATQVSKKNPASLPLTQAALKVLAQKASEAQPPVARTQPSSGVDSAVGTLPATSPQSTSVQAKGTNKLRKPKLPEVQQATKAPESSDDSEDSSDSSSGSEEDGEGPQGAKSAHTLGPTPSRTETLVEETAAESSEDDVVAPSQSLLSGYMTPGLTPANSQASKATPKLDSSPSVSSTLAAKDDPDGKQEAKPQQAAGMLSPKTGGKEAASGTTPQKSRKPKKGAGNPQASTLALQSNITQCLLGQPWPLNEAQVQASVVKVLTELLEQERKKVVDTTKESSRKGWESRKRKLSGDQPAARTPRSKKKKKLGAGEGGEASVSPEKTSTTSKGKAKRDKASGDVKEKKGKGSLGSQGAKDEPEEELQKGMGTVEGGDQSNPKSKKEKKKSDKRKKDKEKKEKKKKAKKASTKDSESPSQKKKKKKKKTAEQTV

[4] = target: cysteines in MDA-MB-231 and Ramos cells (Homo sapiens, UniProt O00299)
[5] = target: T3, cysteines in MDA-MB-231 and Ramos cells (Homo sapiens, UniProt Q9NVC6)
T3 sequence (Q9NVC6 1-651): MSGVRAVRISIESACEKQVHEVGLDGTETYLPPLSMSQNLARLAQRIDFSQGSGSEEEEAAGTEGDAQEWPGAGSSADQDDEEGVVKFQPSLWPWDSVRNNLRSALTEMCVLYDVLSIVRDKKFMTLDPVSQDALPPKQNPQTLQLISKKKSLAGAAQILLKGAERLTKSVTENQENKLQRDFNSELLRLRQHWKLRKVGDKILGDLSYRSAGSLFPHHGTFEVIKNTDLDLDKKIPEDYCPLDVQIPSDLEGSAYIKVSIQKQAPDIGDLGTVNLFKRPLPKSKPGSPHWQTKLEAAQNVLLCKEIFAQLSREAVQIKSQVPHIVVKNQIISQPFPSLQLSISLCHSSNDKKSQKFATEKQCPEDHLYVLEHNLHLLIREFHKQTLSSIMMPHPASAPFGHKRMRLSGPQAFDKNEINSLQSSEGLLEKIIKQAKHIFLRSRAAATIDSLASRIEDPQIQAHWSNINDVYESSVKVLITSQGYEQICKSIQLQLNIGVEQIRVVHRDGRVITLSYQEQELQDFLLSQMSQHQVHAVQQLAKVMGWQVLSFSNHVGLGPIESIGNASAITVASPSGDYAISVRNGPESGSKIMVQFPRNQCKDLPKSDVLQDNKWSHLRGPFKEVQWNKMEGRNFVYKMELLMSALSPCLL

[6] = target: T4, cysteines in MDA-MB-231 and Ramos cells (Homo sapiens, UniProt O95571)
T4 sequence (O95571 8-254): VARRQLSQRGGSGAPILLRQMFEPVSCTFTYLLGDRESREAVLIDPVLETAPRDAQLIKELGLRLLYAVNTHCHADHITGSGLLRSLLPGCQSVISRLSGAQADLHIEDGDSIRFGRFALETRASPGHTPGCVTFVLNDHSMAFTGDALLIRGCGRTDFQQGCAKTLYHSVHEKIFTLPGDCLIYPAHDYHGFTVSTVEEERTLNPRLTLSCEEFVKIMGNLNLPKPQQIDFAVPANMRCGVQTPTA

Sequence of cysteines in MDA-MB-231 and Ramos cells (Homo sapiens, UniProt Q7Z2W4) (Q7Z2W4 whole entry): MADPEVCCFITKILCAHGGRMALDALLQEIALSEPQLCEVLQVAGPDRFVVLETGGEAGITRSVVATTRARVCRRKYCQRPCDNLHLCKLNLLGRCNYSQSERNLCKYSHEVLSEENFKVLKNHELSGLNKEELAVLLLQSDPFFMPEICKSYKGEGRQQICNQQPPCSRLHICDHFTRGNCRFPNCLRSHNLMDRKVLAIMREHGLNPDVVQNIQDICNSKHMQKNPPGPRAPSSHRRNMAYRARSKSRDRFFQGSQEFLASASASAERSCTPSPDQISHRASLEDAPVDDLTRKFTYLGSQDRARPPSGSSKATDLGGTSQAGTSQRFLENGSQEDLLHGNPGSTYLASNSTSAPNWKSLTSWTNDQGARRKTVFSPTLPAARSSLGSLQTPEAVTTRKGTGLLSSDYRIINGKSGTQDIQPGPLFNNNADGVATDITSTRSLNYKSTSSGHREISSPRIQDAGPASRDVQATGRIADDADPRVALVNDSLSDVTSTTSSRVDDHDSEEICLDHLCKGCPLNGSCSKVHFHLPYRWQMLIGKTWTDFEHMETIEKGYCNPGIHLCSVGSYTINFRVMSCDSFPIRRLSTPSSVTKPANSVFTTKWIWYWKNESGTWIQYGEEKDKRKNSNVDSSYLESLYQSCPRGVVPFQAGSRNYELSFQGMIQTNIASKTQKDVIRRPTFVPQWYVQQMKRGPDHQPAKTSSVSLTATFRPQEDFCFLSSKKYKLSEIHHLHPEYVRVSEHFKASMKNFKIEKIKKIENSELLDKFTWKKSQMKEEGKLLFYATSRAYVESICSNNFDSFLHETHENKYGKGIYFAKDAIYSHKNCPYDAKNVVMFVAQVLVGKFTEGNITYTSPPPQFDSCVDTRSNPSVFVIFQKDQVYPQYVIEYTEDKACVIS

| isoTOP-ABPP ratio P51946_C244 [1]; 231 | isoTOP-ABPP ratio Q7Z2W4_C645 [2]; 231 | isoTOP-ABPP ratio Q13428_C38 [3]; 231 | isoTOP-ABPP ratio O00299_C24 [4]; 231 | isoTOP-ABPP ratio Q9NVC6_C649 [5]; 231 | isoTOP-ABPP ratio O95571_C170 [6]; 231 | isoTOP-ABPP ratio Q13428_C1298 [3]; 231 | isoTOP-ABPP ratio P51946_C244 ([1]; ramos) | isoTOP-ABPP ratio Q7Z2W4_C645 ([2]; ramos) | isoTOP-ABPP ratio Q13428_C38 ([3]; ramos) | isoTOP-ABPP ratio O00299_C24 ([4]; ramos) | isoTOP-ABPP ratio Q9NVC6_C649 ([5]; ramos) | isoTOP-ABPP ratio O95571_C170 ([6]; ramos) | isoTOP-ABPP ratio Q13428_C1298 ([3]; ramos) | SMILES |
| --- | --- | --- | --- | --- | --- | --- | --- | --- | --- | --- | --- | --- | --- | --- |
| 1.4 | 0.9 | 1.5 | 0.7 | 0.8 | 1.7 |  |  |  |  |  |  |  |  | O=C(CCl)NC12CC3CC(CC(C3)C1)C2 [compound 21] |
|  |  |  |  |  |  |  | 1.1 | 1.6 | 1.5 | 1.1 | 1.6 | 1.5 |  | O=C(CCl)N1CCN(CC(=O)N2CCOCC2)CC1 [compound 29] |
| 2.4 | 4.6 | 2.8 |  | 20.0 | 3.1 | 4.7 |  |  |  |  |  |  |  | CC1CCc2ccccc2N1C(=O)CCl (centres unmarked) [compound 45] |

Continued, compound first:

| SMILES | isoTOP-ABPP ratio P51946_C244 [1]; 231 | isoTOP-ABPP ratio Q7Z2W4_C645 [2]; 231 | isoTOP-ABPP ratio Q13428_C38 [3]; 231 | isoTOP-ABPP ratio O00299_C24 [4]; 231 | isoTOP-ABPP ratio Q9NVC6_C649 [5]; 231 | isoTOP-ABPP ratio O95571_C170 [6]; 231 | isoTOP-ABPP ratio Q13428_C1298 [3]; 231 | isoTOP-ABPP ratio P51946_C244 ([1]; ramos) | isoTOP-ABPP ratio Q7Z2W4_C645 ([2]; ramos) | isoTOP-ABPP ratio Q13428_C38 ([3]; ramos) | isoTOP-ABPP ratio O00299_C24 ([4]; ramos) | isoTOP-ABPP ratio Q9NVC6_C649 ([5]; ramos) | isoTOP-ABPP ratio O95571_C170 ([6]; ramos) | isoTOP-ABPP ratio Q13428_C1298 ([3]; ramos) |
| --- | --- | --- | --- | --- | --- | --- | --- | --- | --- | --- | --- | --- | --- | --- |
| CC(C)CCOCCNC(=O)CCl [compound 27] | 1.1 | 0.8 | 1.3 | 0.7 | 1.3 | 1.1 | 1.0 |  |  |  |  |  |  |  |
| COc1ccccc1OCCNC(=O)CCl [compound 28] |  |  | 1.0 |  | 1.1 |  | 0.9 |  |  |  |  |  |  |  |
| C=CC(=O)N(Cc1cccnc1)c1cc(C(F)(F)F)cc(C(F)(F)F)c1 [compound 31] |  |  |  | 0.6 | 0.8 |  |  |  |  |  |  |  |  | 2.2 |
| C=CC(=O)Nc1cc(F)c(N2CCN(C(=O)OC(C)(C)C)CC2)c(F)c1 [compound 38] | 1.0 | 0.9 | 1.1 | 1.0 | 1.2 |  | 2.0 |  |  |  |  |  |  |  |
| Cc1ccc(C=C(C#N)C(=O)NCCN2CCOCC2)cc1 [compound 41] | 1.2 | 0.9 | 1.1 | 0.6 | 0.8 | 1.1 | 1.0 |  |  |  |  |  |  |  |
| O=C(CCl)Nc1cccc2ncccc12 [compound 51] | 0.7 | 1.6 | 1.1 |  |  |  |  |  |  |  |  |  |  |  |
